Data: patent US20090216117A1, “NOVEL METHOD OF USING TRIACETIN AND AUXILIARY AGENT FOR ULTRASONIC DIAGNOSTIC EXAMINATION” (SHINSHU UNIVERSITY, priority 2005, published 2009)
“Also recorded” adds a separate entry of the source.

Legend:
Beagles [1] = experiment: Test 2: Pylorus occlusion test (gastric emptying, Evans blue recovery from duodenum); format: in vivo; conditions: for suppression of quantitative gastric emptying in comparison with physiological saline: 50 mL test fluid into stomach; for percent emptied: after 50 minutes, almost all physiological saline emptied by about 30 minutes
Method: To 10 mL of triacetin (Wako Pure Chemical Industries, Ltd.), 40 mL of water was added to make a total volume of 50 mL, thereby making test fluid A.
Ten milliliters of olive oil (Wako Pure Chemical Industries, Ltd.) and 10 mL of propylene glycol were mixed and water was added to make a total volume of 50 mL, thereby making test fluid B.
Half a gram of stearic acid (Wako Pure Chemical Industries, Ltd.) and 20 mL of propylene glycol were mixed and water was added to make a total volume of 50 mL, thereby making test fluid C.
Beagles each weighing about 10 kg were given general anesthesia with an injection of Nembutal (Dainippon Pharmaceutical Co., Ltd.) and following middle incision, tubes were inserted into the body of stomach and the duodenum as shown in FIG. 8 and with each tube being passed subcutaneously through the flank to the back, the dogs received a preliminary invasive operation for an experiment under an unanesthetized condition.
Starting six days after the operation when there were no longer the effects of anesthesia and those of the operative invasion and the general condition had recovered, the study of the sample fluids of interest was started. To be more specific, it is well known that the gastric emptying capability is suppressed under an anesthetized condition, so in the Example under consideration, in order to eliminate that effect and also to determine data for a more normal state, an experiment was conducted under a chronic unanesthetized condition.
To each test fluid, 5 mg of Evans blue (Wako Pure Chemical Industries, Ltd.) was added and 50 mL of the mixture was injected into the stomach of each beagle through the tube indicated by 1 in FIG. 8. Similarly, a tube was placed in the duodenum and the test fluid emptied from the stomach was recovered through the tube indicated by 2 in FIG. 8. At given time intervals, the emptied test fluid was recovered by suction (for one minute) through the tube left in place in the duodenum and the Evans blue contained in it was measured for absorbance (DU R640 SPECTRO PHOTOMETER, product of Beckman Inc.) at a wavelength of 605 nm, to thereby measure the concentration of Evans blue in the suctioned fluid; the amount of recovery was used to determine the gastric emptying rate.

[2] = Dissolution of triacetin in water; format: physicochemical; conditions: ordinary temperature
From the text: If the auxiliary agent for examination in ultrasonic imaging diagnosis is used in the state of an emulsion, the oil-water interface will reflect ultrasound and affect its propagation. […] For instance, triacetin described in the present invention can be dissolved in water in an amount of about 7% at ordinary temperature without forming an emulsion and this concentration is sufficient for suppressing gastric motility.

[3] = Test 1: viscosity comparison with Brookfield viscometer; format: physicochemical
Method: Using water (ion-exchanged water), an aqueous solution of triacetin, and an aqueous solution of sodium alginate which is a typical viscosity enhancing polysaccharide (KIMICA Corporation, Grade: IL-2), viscosity comparison was made. Viscosity was measured with a Brookfield viscometer (product of TOKIMEC INC., Model BM).

Beagles [4] = experiment: Test 3: Measurement of gastric contractile motion by strain gage; format: in vivo
Method: Two hundred microliters of triacetin (Wako Pure Chemical Industries, Ltd.) was dissolved in distilled water to make a volume of 20 mL, thereby making test fluid D.
Four milliliters of olive oil (Wako Pure Chemical Industries, Ltd.) was dissolved in distilled water to make a volume of 20 mL, thereby making test fluid E.
Twenty milliliters of distilled water was used as control fluid F.
In order to measure muscular contraction with the strain gage, the submucosa was stretched so that the surface of the mucous membrane would not be incised and the strain gage was buried in the submucosa and sutured thereto, with the wound of incision being closed by a suture.
The tube and the strain gage were subcutaneously guided to the outside of the body from the flank to the back and the dogs received a preliminary invasive operation for an experiment under an unanesthetized condition.
Starting six days after the operation when there were no longer the effects of anesthesia and those of the operative invasion and the general condition had recovered, the study of the sample fluids of interest was started. […]
Note that signals from the strain gage were amplified (VC-11, NIHON KOHDEN) and then AD converted, with the resulting digital data being analyzed with Origin Version 6.5 (OriginLab Corporation). […]

## CCCCCCCCCCCCCCCCCC(=O)O [stearic acid, reference compound]
Beagles [1]
  suppression of quantitative gastric emptying in comparison with physiological saline: obvious suppression
  percent emptied: about 10%

## CC(=O)OCC(COC(C)=O)OC(C)=O [Triacetin, triacetin]
[2]
  amount that can be dissolved in water without forming an emulsion: about 7%
[3]; 0.2% aqueous solution
  Viscosity: 10.1 mPa · s
[3]; 1.0% aqueous solution
  Viscosity: 10.8 mPa · s
[3]; 5.0% aqueous solution
  Viscosity: 16.7 mPa · s
[3]; aqueous solutions
  viscosity enhancement as compared with sodium alginate: considerably less effective in viscosity enhancement
Beagles [1]; 50 mL test fluid A into stomach, physiological saline peaked at about 5 minutes
  time at which the emptied amount peaked: 10 to 20 min
Beagles [1]; 50 mL test fluid injected into stomach, unanesthetized beagles, physiological saline as comparison
  pylorus occluding effect: markedly effective in occluding the pylorus
Beagles [1]
  suppression of quantitative gastric emptying in comparison with physiological saline: obviously suppressed
  percent emptied: about 5%
Beagles [4]; 20 μL/kg injected into stomach in phase III, fasted unanesthetized beagles
  change in amplitude and frequency of contractions (contractile motion of the stomach): obvious suppression of the contractile motion; also recorded: decreased both the amplitude and frequency of contractions
Beagles [4]; 20 μL/kg, change occurred immediately after the injection
  duration of the suppression of contractile motion after injection: about three
